One assay deals with T1, human TLR9 (Homo sapiens, UniProt Q9NR96).
T1 construct: host or cells: HEK-Blue cells
T1 sequence (Q9NR96 26-1032): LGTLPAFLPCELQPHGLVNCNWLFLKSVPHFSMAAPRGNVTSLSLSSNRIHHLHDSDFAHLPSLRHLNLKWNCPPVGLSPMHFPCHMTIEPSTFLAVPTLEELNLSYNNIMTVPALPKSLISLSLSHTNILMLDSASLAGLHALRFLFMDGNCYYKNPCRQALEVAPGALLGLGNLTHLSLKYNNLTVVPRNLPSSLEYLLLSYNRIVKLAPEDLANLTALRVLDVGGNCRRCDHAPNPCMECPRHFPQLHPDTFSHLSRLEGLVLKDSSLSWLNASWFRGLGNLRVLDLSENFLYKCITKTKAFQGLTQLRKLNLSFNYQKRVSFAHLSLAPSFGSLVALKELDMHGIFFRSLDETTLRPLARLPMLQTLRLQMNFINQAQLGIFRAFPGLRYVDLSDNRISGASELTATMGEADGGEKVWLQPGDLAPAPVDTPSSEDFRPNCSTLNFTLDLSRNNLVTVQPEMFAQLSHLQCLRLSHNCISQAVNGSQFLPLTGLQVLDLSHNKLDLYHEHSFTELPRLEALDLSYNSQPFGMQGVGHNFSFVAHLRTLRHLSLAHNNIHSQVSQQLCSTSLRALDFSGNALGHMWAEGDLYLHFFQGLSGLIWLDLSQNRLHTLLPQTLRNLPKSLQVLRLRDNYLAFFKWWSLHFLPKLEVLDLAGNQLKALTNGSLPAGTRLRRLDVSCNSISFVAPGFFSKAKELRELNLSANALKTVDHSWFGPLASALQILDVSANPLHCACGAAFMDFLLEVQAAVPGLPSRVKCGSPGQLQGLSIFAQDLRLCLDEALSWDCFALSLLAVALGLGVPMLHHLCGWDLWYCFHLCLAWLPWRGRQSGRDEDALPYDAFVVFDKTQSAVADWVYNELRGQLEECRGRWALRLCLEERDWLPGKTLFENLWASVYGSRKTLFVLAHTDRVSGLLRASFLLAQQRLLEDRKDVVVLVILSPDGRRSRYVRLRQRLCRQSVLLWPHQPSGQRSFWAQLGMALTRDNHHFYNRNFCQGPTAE
Kind of assay: TLR9 inhibition reporter assay (HEK-Blue SEAP). Type of assay: cell-based. The conditions noted are these: HEK-Blue cells overexpressing human TLR9, ODN2006 5 nM, 22 hour incubation. The gist of the method:
(§1)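 Agonists used: gardiquimod 7.5 μM (TLR7), R848 15.9 μM (TLR8), ODN2006 5 nM (TLR9), added after 30 min room-temperature compound pre-treatment (0.05 nM–50 μM) of receptor-overexpressing HEK-Blue cells. SEAP reporter (NF-κB/AP-1 driven) read after 22 h at 37 °C; inhibition scaled between agonist+DMSO and reference-inhibitor wells.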

For another assay, the target named is T2, human TLR8 (Homo sapiens, UniProt Q9NR97).
T2 construct: host or cells: HEK-Blue cells
T2 sequence (Q9NR97 27-1041): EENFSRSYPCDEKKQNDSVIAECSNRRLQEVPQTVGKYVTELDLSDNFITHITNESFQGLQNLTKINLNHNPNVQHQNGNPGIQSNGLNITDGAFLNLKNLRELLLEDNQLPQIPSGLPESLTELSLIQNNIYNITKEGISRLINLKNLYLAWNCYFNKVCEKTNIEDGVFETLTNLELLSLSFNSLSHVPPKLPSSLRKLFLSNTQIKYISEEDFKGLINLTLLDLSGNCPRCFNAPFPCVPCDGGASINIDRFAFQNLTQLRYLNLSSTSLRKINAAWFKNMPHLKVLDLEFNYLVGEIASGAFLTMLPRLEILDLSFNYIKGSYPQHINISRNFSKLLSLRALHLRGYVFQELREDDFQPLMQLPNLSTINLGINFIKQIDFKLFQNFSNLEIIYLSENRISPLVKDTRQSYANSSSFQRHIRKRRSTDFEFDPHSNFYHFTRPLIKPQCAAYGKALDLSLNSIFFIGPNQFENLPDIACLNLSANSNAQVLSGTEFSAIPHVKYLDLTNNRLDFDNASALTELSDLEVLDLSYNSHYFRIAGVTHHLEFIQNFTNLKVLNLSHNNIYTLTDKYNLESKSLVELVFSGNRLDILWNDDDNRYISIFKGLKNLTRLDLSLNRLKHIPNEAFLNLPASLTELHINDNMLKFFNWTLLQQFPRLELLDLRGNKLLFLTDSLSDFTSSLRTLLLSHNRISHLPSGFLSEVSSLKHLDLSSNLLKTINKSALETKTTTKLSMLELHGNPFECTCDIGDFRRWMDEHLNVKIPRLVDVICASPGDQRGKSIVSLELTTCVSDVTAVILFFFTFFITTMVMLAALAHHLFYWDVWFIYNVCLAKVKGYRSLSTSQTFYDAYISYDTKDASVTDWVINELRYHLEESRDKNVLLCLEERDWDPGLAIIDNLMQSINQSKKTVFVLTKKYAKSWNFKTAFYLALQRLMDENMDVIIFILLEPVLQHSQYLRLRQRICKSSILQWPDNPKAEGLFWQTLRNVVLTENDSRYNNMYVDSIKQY
Briefly: TLR8 inhibition reporter assay (HEK-Blue SEAP). Type of assay: cell-based. To be noted: HEK-Blue cells overexpressing human TLR8, R848 15.9 μM, 22 hour incubation. In outline:
as §1

Structures are written as SMILES. A value given as a limit tells only on which side of the number the result lay.

Turning to `COc1cc(-c2cc3[nH]c(=O)n([C@@H]4CCCN(C(C)C)C4)c3cc2C)cn2ncnc12` [Example 53, (R)-1-(1-isopropylpiperidin-3-yl)-5-(8-methoxy-[1,2,4]triazolo[1,5-a]pyridin-6-yl)-6-methyl-1,3-dihydro-2H-benzo[d]imidazol-2-one], the figures for the half-inhibitory concentration (IC50) at human TLR9 and at human TLR8 were 3750 nM and 35.9 nM, respectively.
The matching figures for `COc1cc(-c2ccc3c(c2)[nH]c(=O)n3C2CCN(C3CCC3)CC2)cn2ncnc12` [Example 83, 1-(1-cyclobutylpiperidin-4-yl)-5-(8-methoxy-[1,2,4]triazolo[1,5-a]pyridin-6-yl)-1,3-dihydro-2H-benzo[d]imidazol-2-one]: 5370 nM and 1260 nM.
Regarding `COc1cc(-c2cc3[nH]c(=O)n([C@H]4CC[C@@H](N(C)C(C)C)CC4)c3cc2C)cn2ncnc12` [Example 84, 1-((1s,4s)-4-(isopropyl(methyl)amino)cyclohexyl)-5-(8-methoxy-[1,2,4]triazolo[1,5-a]pyridin-6-yl)-6-methyl-1,3-dihydro-2H-benzo[d]imidazol-2-one], the half-maximal inhibitory concentration (IC50) was determined as 4780 nM on human TLR9 and 9.69 nM at human TLR8.
With `Cc1cc2c(cc1-c1cc(C)c3ncnn3c1)[nH]c(=O)n2[C@@H]1CCCN(CC2CCOC2)C1` (stereo partly drawn) [Example 43, 6-methyl-5-(8-methyl-[1,2,4]triazolo[1,5-a]pyridin-6-yl)-1-((3R)-1-((tetrahydrofuran-3-yl)methyl)piperidin-3-yl)-1,3-dihydro-2H-benzo[d]imidazol-2-one], the concentration for half-maximal inhibition (IC50) against human TLR9 was determined as 16500 nM; at human TLR8, 57.7 nM.
In the same order, the values of `Cc1cc2c(cc1-c1cc(C)c3ncnn3c1)[nH]c(=O)n2[C@@H]1CCCN(CC2CC2)C1` [Example 37, (R)-1-(1-(cyclopropylmethyl)piperidin-3-yl)-6-methyl-5-(8-methyl-[1,2,4]triazolo[1,5-a]pyridin-6-yl)-1,3-dihydro-2H-benzo[d]imidazol-2-one] are 10100 nM and 28.7 nM.
Take `CCC(CC)CN1CCC[C@@H](n2c(=O)[nH]c3cc(-c4cc(OC)c5ncnn5c4)c(C)cc32)C1` [Example 73, (R)-1-(1-(2-ethylbutyl)piperidin-3-yl)-5-(8-methoxy-[1,2,4]triazolo[1,5-a]pyridin-6-yl)-6-methyl-1,3-dihydro-2H-benzo[d]imidazol-2-one]: the figures for the half-inhibitory concentration (IC50) against human TLR9 and on human TLR8 were 8070 nM and 73.6 nM, respectively.
The matching figures for `COc1cc(-c2cc3[nH]c(=O)n([C@@H]4CCCN(CC(C)(C)C)C4)c3cc2C)cn2ncnc12` [Example 71, (R)-5-(8-methoxy-[1,2,4]triazolo[1,5-a]pyridin-6-yl)-6-methyl-1-(1-neopentylpiperidin-3-yl)-1,3-dihydro-2H-benzo[d]imidazol-2-one]: 29000 nM and 147 nM.
The matching figures for `Cc1cc2c(cc1-c1cc(C)c3ncnn3c1)[nH]c(=O)n2[C@@H]1CCCN(Cc2cccnc2)C1` [Example 46, (R)-6-methyl-5-(8-methyl-[1,2,4]triazolo[1,5-a]pyridin-6-yl)-1-(1-(pyridin-3-ylmethyl)piperidin-3-yl)-1,3-dihydro-2H-benzo[d]imidazol-2-one]: 7670 nM and 42.4 nM.
In the same order, the values of `COc1cc(-c2cc3[nH]c(=O)n([C@@H]4CCCN(C5CCC5)C4)c3cc2C)cn2ncnc12` [Example 69, (R)-1-(1-cyclobutylpiperidin-3-yl)-5-(8-methoxy-[1,2,4]triazolo[1,5-a]pyridin-6-yl)-6-methyl-1,3-dihydro-2H-benzo[d]imidazol-2-one] are 19300 nM and 110 nM.
Regarding `Cc1cc2c(cc1-c1cc(C)c3ncnn3c1)[nH]c(=O)n2[C@@H]1CCCN(CCCC(F)(F)F)C1` [Example 39, (R)-6-methyl-5-(8-methyl-[1,2,4]triazolo[1,5-a]pyridin-6-yl)-1-(1-(4,4,4-trifluorobutyl)piperidin-3-yl)-1,3-dihydro-2H-benzo[d]imidazol-2-one], the IC50 at human TLR9 came out at 10600 nM; against human TLR8, 49.3 nM.
On to `COc1cc(-c2cc3[nH]c(=O)n(C4CCN(C)CC4)c3cc2C)cn2ncnc12` [Example 1, 5-(8-methoxy-[1,2,4]triazolo[1,5-a]pyridin-6-yl)-6-methyl-1-(1-methylpiperidin-4-yl)-1,3-dihydro-2H-benzo[d]imidazol-2-one], for which the IC50 against human TLR9 is 278 nM; against human TLR8, 54.1 nM.
As to `Cc1cc2c(cc1-c1cc(C)c3ncnn3c1)[nH]c(=O)n2[C@H]1CC[C@@H](NCC(C)(C)C)CC1` [Example 32, 6-methyl-5-(8-methyl-[1,2,4]triazolo[1,5-a]pyridin-6-yl)-1-((1s,4s)-4-(neopentylamino)cyclohexyl)-1,3-dihydro-2H-benzo[d]imidazol-2-one], the half-inhibitory concentration (IC50) at human TLR9 was 2340 nM; at human TLR8 it was 0.61 nM.
In the same order, the values of `COc1cc(-c2ccc3c(c2)[nH]c(=O)n3C2CCN(C3CCOC3)CC2)cn2ncnc12` (stereo not shown) [Example 81, 5-(8-methoxy-[1,2,4]triazolo[1,5-a]pyridin-6-yl)-1-(1-(tetrahydrofuran-3-yl)piperidin-4-yl)-1,3-dihydro-2H-benzo[d]imidazol-2-one] are 3880 nM and more than 3130 nM.
Turning to `COc1cc(-c2cc3[nH]c(=O)n([C@H]4CC[C@@H](NC5CCOCC5)CC4)c3cc2C)cn2ncnc12` [Example 49, 5-(8-methoxy-[1,2,4]triazolo[1,5-a]pyridin-6-yl)-6-methyl-1-((1s,4s)-4-((tetrahydro-2H-pyran-4-yl)amino)cyclohexyl)-1,3-dihydro-2H-benzo[d]imidazol-2-one], the IC50 was found to be 7430 nM against human TLR9 and 3.26 nM at human TLR8.
With `CCCN[C@H]1CC[C@@H](n2c(=O)[nH]c3cc(-c4cc(OC)c5ncnn5c4)c(C)cc32)CC1` [Example 64, 5-(8-methoxy-[1,2,4]triazolo[1,5-a]pyridin-6-yl)-6-methyl-1-((1s,4s)-4-(propylamino)cyclohexyl)-1,3-dihydro-2H-benzo[d]imidazol-2-one], the concentration for half-maximal inhibition (IC50) was determined as 5490 nM at human TLR9 and 1.76 nM against human TLR8.
Regarding `COc1cc(-c2cc3[nH]c(=O)n([C@H]4CC[C@@H](NCC5CCCCC5)CC4)c3cc2C)cn2ncnc12` [Example 66, 1-((1s,4s)-4-((cyclohexylmethyl)amino)cyclohexyl)-5-(8-methoxy-[1,2,4]triazolo[1,5-a]pyridin-6-yl)-6-methyl-1,3-dihydro-2H-benzo[d]imidazol-2-one], the half-maximal inhibitory concentration (IC50) at human TLR9 turned out to be 2050 nM; against human TLR8, 0.66 nM.
In the case of `Cc1cc2c(cc1-c1cc(C)c3ncnn3c1)[nH]c(=O)n2[C@@H]1CCCN(CCC(C)(C)C)C1` [Example 44, (R)-1-(1-(3,3-dimethylbutyl)piperidin-3-yl)-6-methyl-5-(8-methyl-[1,2,4]triazolo[1,5-a]pyridin-6-yl)-1,3-dihydro-2H-benzo[d]imidazol-2-one], the IC50 on human TLR9 stood at 4720 nM; against human TLR8, 49 nM.

By IC50 is commonly meant the concentration that inhibits the measured activity by half.

These data come from US12187723B2 (BRISTOL-MYERS SQUIBB COMPANY, priority 2019, dated 2025).
